Consider six compounds from ChEMBL document CHEMBL1955731, “Design and synthesis of novel bone-targeting dual-action pro-drugs for the treatment and reversal of osteoporosis” (Bioorg Med Chem, 2012).

The subject of series [1] is Bone. Put plainly: Binding affinity to rat bone at 0.1 mg/ml after 10 mins. It is filed as ADME, tissue-based, Bone element.
For series [2], the system named is Plasma. The experiment in a line: Prodrug conversion in rat plasma assessed as compound conversion to 7-((R)-2-((R,E)-4,4-difluoro-3-hydroxy-4-phenylbut-1-enyl)-5-oxopyrrolidin-1-yl)heptanoic acid at 100 ug/ml for 96 hrs by HPLC-MS-MS analysis. The class given is ADME, cell-free.
The nature of series [3]: Elimination half life in Sprague-Dawley rat at 5 mg/kg, iv. The class given is ADME, organism-based. Also noted: dose 5 mg/kg, route intravenous. Particulars: in vivo, read-out: beta t1/2; call rule not given here.
In series [4] the test system is Bone. Put plainly: Drug uptake in Sprague-Dawley rat bone at 5 mg/kg, iv after 14 days. Also noted: dose 5 mg/kg, route intravenous. Conditions: in vivo, 336 h. It is filed as ADME, organism-based, Bone element.
The subject of series [5] is Bone. Put plainly: Drug uptake in Sprague-Dawley rat bone at 5 mg/kg, iv after 28 days. The class given is ADME, organism-based, Bone element. Set-up: dose 5 mg/kg, route intravenous. Particulars: in vivo, 672 h.
A short description of series [6]: Drug excretion in Sprague-Dawley rat feces at 5 mg/kg, iv after 24 hrs. Set-up: dose 5 mg/kg, route intravenous. Conditions: in vivo. It is filed as ADME, organism-based.
Series [7] concerns Rattus norvegicus. Put plainly: Toxicity in Sprague-Dawley rat at 5 mg/kg, iv. It is filed as organism-based. Also noted: dose 5 mg/kg, route intravenous. Conditions: in vivo.
Series [8] can be described thus: Drug excretion in Sprague-Dawley rat urine at 5 mg/kg, iv after 24 hrs. The class given is ADME, organism-based. Also noted: dose 5 mg/kg, route intravenous. Particulars: in vivo.
The test system of series [9] is Bone. Put plainly: Drug uptake in Sprague-Dawley rat bone at 5 mg/kg, iv after 24 hrs. It is filed as ADME, organism-based, Bone element. Set-up: dose 5 mg/kg, route intravenous. Particulars: in vivo.
The subject of series [10] is Bone. The experiment in a line: Drug uptake in rat bone after 5 mins. It is filed as ADME, tissue-based, Bone element. Conditions: in vivo.
The test system of series [11] is Bone. The experiment in a line: Drug uptake in Sprague-Dawley rat bone at 5 mg/kg, iv after 7 days. The class given is ADME, organism-based, Bone element. Set-up: dose 5 mg/kg, route intravenous. Conditions: in vivo, 168 h.
In series [12] the test system is Plasma. The experiment in a line: Prodrug conversion in rat plasma assessed as compound conversion to 7-((R)-2-((R,E)-4,4-difluoro-3-hydroxy-4-phenylbut-1-enyl)-5-oxopyrrolidin-1-yl)heptanoic acid at 100 ug/ml after 30 mins by HPLC analysis. The class given is ADME, cell-free. Particulars: 0.5 h.
The subject of series [13] is Bone. Put plainly: Drug uptake in Sprague-Dawley rat bone at 10 mg/kg, iv after 6 hrs. It is filed as ADME, organism-based, Bone element. Set-up: dose 10 mg/kg, route intravenous. Conditions: in vivo.
In series [14] the test system is Bone. Put plainly: Drug uptake in Sprague-Dawley rat bone at 10 mg/kg, iv after 14 days. It is filed as ADME, organism-based, Bone element. Also noted: dose 10 mg/kg, route intravenous. Particulars: in vivo, 336 h.
Series [15] concerns Bone. Put plainly: Drug uptake in Sprague-Dawley rat bone at 10 mg/kg, iv after 7 days. It is filed as ADME, organism-based, Bone element. Set-up: dose 10 mg/kg, route intravenous. Particulars: in vivo, 168 h.
Series [16] in a line: Elimination half life in Sprague-Dawley rat at 10 mg/kg, iv. It is filed as ADME, organism-based. Conditions: in vivo, read-out: beta t1/2. Also noted: dose 10 mg/kg, route intravenous.
The test system of series [17] is Bone. The experiment in a line: Drug uptake in Sprague-Dawley rat bone at 10 mg/kg, iv after 2 days. It is filed as ADME, organism-based, Bone element. Set-up: dose 10 mg/kg, route intravenous. Particulars: in vivo, 48 h.

Turning to `O=C1CC[C@H](/C=C/[C@@H](O)C(F)(F)c2ccccc2)N1CCCCCCc1nnn[nH]1`, the Activity entry in series [1] is “Not Active”.
Consider `CCOC(=O)CCCCCCN1C(=O)CC[C@@H]1/C=C/[C@@H](OC(=O)NCCCC(O)(P(=O)(O)O)P(=O)(O)O)C(F)(F)c1ccccc1`, for which the Drug metabolism result in [2] is on record as “Not Active”.
Take `[3H]C([3H])([3H])COC(=O)CCCCCCN1C(=O)CC[C@@H]1/C=C/[C@@H](OC(=O)NCCCC(O)(P(=O)(O)O)P(=O)(O)O)C(F)(F)c1ccccc1`: in series [3], the half-life is less than 15 min. The Drug uptake in series [4] is reported as 6.2%; in series [5] it was 5.6%; in series [9], 9.4%; in series [10], 96%; in series [11], 8%. In addition, the Activity in [1] is given as 90%; in series [7], “Non-toxic”. Moreover, the Drug excretion entry in [6] was “Active”; in series [8] it was “Not Active”.
For `CCOC(=O)CCCCCCN1C(=O)CC[C@@H]1/C=C/[C@@H](O)C(F)(F)c1ccccc1`, in series [12], the Drug metabolism result was “Active”. Besides, the Activity result in [1] is listed as “Not Active”.
`CCN(CC)CC.[3H]C([3H])([3H])COC(=O)CCCCCCN1C(=O)CC[C@@H]1/C=C/[C@@H](OC(=O)Cc1ccc(OC(=O)NCCCC(O)(P(=O)(O)O)P(=O)(O)O)cc1)C(F)(F)c1ccccc1`: the Drug uptake in [13] was found to be 5.9%; in [14], 1.4%; in [15] it was 2.2%; in [17], 4.9%. The half-life in series [16] is less than 30 min.
Turning to `O=C(O)CCCCCCN1C(=O)CC[C@@H]1/C=C/[C@@H](O)C(F)(F)c1ccccc1`, the Activity entry in [1] is “Not Active”.
